Data: patent US7329646B2, “Derivatives of the insulinotropic peptide exendin-4 and methods of production thereof” (Shanghai Huayi Bio-Lab Co., Ltd., priority 2001, dated 2008)

Assays:
Assay type in all cases: in vivo
[1] = system: non-diabetic C57 BL/6J mice; assay: Blood glucose after glucose challenge in non-diabetic C57 BL/6J mice (Example 3); conditions: overnight-fasted mice; 20% glucose (200 μl) i.p. with simultaneous s.c. peptide: GLP-1 1 μg, exendin-4 0.2 μg, derivative 0.2 μg; 0, 30, 60, 120 minutes; FIG. 2
Method: Experiments were conducted to determine the effect on the blood glucose levels of non-diabetic C57 BL/6J mice of the exendin-4 (Leu14, Lys20, Arg40) peptide derivative relative to GLP-1 and the wild-type exendin-4 peptide. Overnight-fasted C57 BL/6J mice weighing 20 g were injected with a 20% glucose solution (200 μl) intra-peritoneally and simultaneously subcutaneously injected with either a saline control, GLP-1 (1 μg), exendin-4 (0.2 μg), or exendin-4 (Leu14, Lys20, Arg40) (0.2 μg). Blood glucose levels were determined using standard glucose determination kits at 0, 30, 60, and 120 minutes post-injection.

[2] = system: db/db diabetic mice; assay: Blood glucose after glucose challenge in db/db diabetic mice (Example 4); conditions: 2-hour-fasted db/db mice; 20% glucose (200 μl) i.p. with simultaneous s.c. GLP-1 4 μg, E4m 0.2 μg or Humalog 4 μg; 0-180 minutes; FIG. 3
Method: In order to extend the experimental results obtained in Example 3 with non-diabetic mice, experiments were also conducted to determine the effect on blood glucose levels of db/db diabetic mice of the exendin-4 (Leu14, Lys20, Arg40) peptide derivative relative to GLP-1 and Rapid Insulin.
Specifically, 2-hour-fasted db/db mice weighing 50 g were injected with a 20% glucose solution (200 μl) intra-peritoneally and simultaneously subcutaneously injected with either a saline control, GLP-1 (4 μg), exendin-4 (Leu14, Lys20, Arg40) (“E4m”)(0.2 μg), or the commercially available insulin, Humalog® (Eli Lilly and Company) (4 μg). Blood glucose levels were determined using standard glucose determination kits at 0, 30, 60, 120, and 180 minutes post-injection, and hypoglycemia (%) was calculated relative to the baseline (t=0) blood glucose level of animals receiving saline control.

[3] = system: C57 BL/6J mice; assay: Long-term blood glucose buffering with second glucose challenge at 240 minutes in C57 BL/6J mice (Example 5); conditions: FIG. 4; for effect on rise in blood glucose levels after the initial glucose injection: overnight-fasted mice, 20% glucose (200 μl) i.p. with simultaneous s.c. GLP-1 1 μg or E4m 0.2 μg; for activity on blood glucose after second glucose challenge at 240 minutes after the first injection: peptide given only at first injection (GLP-1 1 μg, E4m 0.2 μg), glucose measured at 240, 270, 300 minutes
Method: In order to determine the long-term ability of the exendin-4 derivative exendin-4 (Leu14, Lys20, Arg40) to buffer blood glucose levels, experiments were performed in which blood glucose levels in the presence of this exendin-4 derivative were determined at various times after an initial glucose challenge at 0 minutes and then a second glucose challenge at 240 minutes.
Specifically, overnight-fasted C57 BL/6J mice weighing 20 g were injected with a 20% glucose solution (200 μl) intra-peritoneally and simultaneously subcutaneously injected with either a saline control, GLP-1 (1 μg), or exendin-4 (Leu14, Lys20, Arg40) (0.2 μg). Then, at 240 minutes after the initial injection a second injection of 20% glucose solution (200 μl) intra-peritoneally was performed. Blood glucose levels were determined using standard glucose determination kits at 0, 30, 60, 240, 270, and 300 minutes after the first injection.

[4] = system: NOD mice; assay: Blood glucose after glucose challenge in NOD mice (Example 6); conditions: overnight-fasted NOD mice
Method: Experiments to determine the effects on blood glucose levels of the exendin-4 derivative exendin-4 (Lys20, Arg40) were conducted in NOD mice provided by the Shanghai Laboratory Animal Center of Chinese Academy of Sciences. 0.9% sodium chloride solution and exendin-4 (Lys20, Arg40) were used in the assay. Plasma glucose testing kits were purchased from Shanghai Institute of Biological Products Ministry of Health.
Overnight-fasted NOD mice were divided into two groups. Mice in the first group were abdominally injected with 200 μl of a solution containing 40% glucose and 1 μg of exendin-4 (Lys20, Arg40). Mice in the second (control) group […] with a glucose solution.
30 μl of blood sample was taken from retro-orbital zeinous sinus immediately using a scaled capillary which was treated beforehand with heparin, placed into 300 μl of normal saline and mixed with the saline. Erythrocytes were removed by centrifugation at 3,000 rpm, while blood serum was kept for glucose determination. Different blood samples were taken as described above at 30 min, 60 min and 120 min, and blood serum was separated. Glucose concentrations of three plasma samples were determined according to the method described in the testing kits, and the decreasing effect of exendin-4 (Lys20, Arg40) on blood glucose concentration was determined.

[5] = system: NOD mice; assay: Insulin secretion in NOD mice, insulin radioimmunoassay (Example 7); conditions: abdominal injection of 5 μg in 200 μl saline, 5, 10, 20, 30 min, data not shown
Method: In order to determine whether the ability of the exendin-4 derivative exendin-4 (Lys20, Arg40) to decrease blood glucose in NOD mice is an insulinotropic effect, experiments were conducted to measure the effect of administration of this compound on insulin levels. In these experiments, NOD mice were provided by Shanghai Laboratory Animal Center of Chinese Academy of Sciences. 40% glucose solution, 0.9% sodium chloride solution, and exendin-4 (Lys20, Arg40) were used in the experiment. Insulin radioimmunoassay kits were purchased from Shanghai Institute of Biological Products Ministry of Health.
NOD mice were divided into two groups. 50 μl of blood sample was taken from the plexus venosus of the eye using a scaled capillary, the inner wall of which was rinsed with 1 mg/mL heparin and was air-dried beforehand. Mice in the two groups were abdominally injected with either 200 μl normal saline alone, or with a similar amount of saline containing 5 μg exendin-4 (Lys20, Arg40), respectively at t=0. Different blood samples were taken as described above at 5 min, 10 min, 20 min and 30 min. […] Insulin concentrations of different samples were determined by following the methods described in the radioimmunoassay kit, and the stimulating effect of exendin-4 (Lys20, Arg40) on insulin secretion was determined.

[6] = system: Healthy C57 BL mice; assay: C-peptide secretion in healthy C57 BL mice, C-peptide radioimmunoassay (Example 8); conditions: abdominal injection of 5 μg in 200 μl saline, data not shown
Method: In order to further investigate the insulinotropic properties of the exendin-4 derivative exendin-4 (Lys20, Arg40), experiments were conducted to measure the effect of administration of this compound on the production of C-peptide, which, as discussed previously, is produced in equal amounts as insulin by the cleavage of proinsulin. Healthy C57 BL mice were provided by Shanghai Laboratory Animal Center of Chinese Academy of Sciences. 40% glucose solution, 0.9% sodium chloride solution and exendin-4 (Lys20, Arg40) were used in the experiments. Insulin radioimmunoassay kits and C-peptide radioimmunoassay kits were purchased from Shanghai Institute of Biological Products Ministry of Health.
Healthy C57 BL mice were divided into two groups. 50 μl of blood sample was taken from plexus venosus of the eye using a scaled capillary, the inner wall of which was rinsed with 1 mg/mL heparin and was air-dried beforehand. Mice in two groups were abdominally injected with 200 μl normal saline alone, or with a similar amount of saline containing 5 μg of exendin-4 (Lys20, Arg40), respectively at t=0. […] The C-peptide concentration in each sample was determined by following the method described by the radioimmunoassay kit, and the stimulating effect of exendin-4 (Lys20, Arg40) on C-peptide secretion was determined.

Row | Substance | effect on blood glucose levels after glucose challenge [1] | effect on blood glucose levels after glucose challenge [2] | effect on rise in blood glucose levels after the initial glucose injection [3] | activity on blood glucose after second glucose challenge at 240 minutes after the first injection [3] | time after administration up to which dramatic fluctuations in glucose concentration are prevented ([4]; 200 μl 40% glucose with 1 μg peptide, abdominal injection) | blood glucose concentration after glucose challenge ([4]; abdominal injection of 200 μl 40% glucose with 1 μg peptide, 30, 60, 120 min, data not shown) | stimulating effect on insulin secretion [5] | stimulating effect on C-peptide secretion [6]
1 | Glucagon-like peptide-1 (HAEGTFTSDVSSYLEGQAAKEFIAWLVKGR; listed as Homo sapiens) [GLP-1, peptide hormone secreted by intestinal cells that enhances insulin secretion, reference compound] | acted to buffer changes in blood glucose levels | resulted in the buffering of changes in blood glucose levels | drastically reduced | GLP-1 activity is essentially abolished |  |  |  | 
2 | Humalog®: commercially available insulin, Humalog® (Eli Lilly and Company) |  | resulted in the buffering of changes in blood glucose levels |  |  |  |  |  | 
3 | exendin-4 (Leu14, Lys20, Arg40) | produced a response profile virtually identical to that seen with the wild-type exendin-4 sequence | resulted in the buffering of changes in blood glucose levels | essentially eliminated | activity at times of 240 or more minutes after first injection is preserved |  |  |  | 
4 | exendin-4 (Lys20, Arg40) |  |  |  |  | at least 2 hours | never showed a notable increase in blood glucose | significantly stimulates insulin secretion | significantly stimulates the secretion of C-peptide relative to the control
5 | exendin-4 [wild-type exendin-4] | acted to buffer changes in blood glucose levels |  |  |  |  |  |  | 
